Data published in PubChem BioAssay (NCI).
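Test compounds were applied to cells in 96-well plates for 48 hours at 5 doses. GI50 = concentration required for 50% inhibition of growth. TGI: total growth inhibition.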

Experiments:
Test in all cases: DTP human tumour cell line panel, 48 h
[1] = test system: 786-0 renal
[2] = test system: A549 NSCLC
[3] = test system: ACHN renal
[4] = test system: BT-549 breast
[5] = test system: CAKI-1 renal
[6] = test system: CCRF-CEM leukemia
[7] = test system: COLO 205 colon
[8] = test system: DU-145 prostate
[9] = test system: EKVX NSCLC
[10] = test system: HCC-2998 colon
[11] = test system: HCT-116 colon
[12] = test system: HCT-15 colon
[13] = test system: HL-60(TB) leukemia
[14] = test system: HOP-62 NSCLC
[15] = test system: HOP-92 NSCLC
[16] = test system: HT29 colon
[17] = test system: IGROV1 ovarian
[18] = test system: KM12 colon
[19] = test system: LOX IMVI melanoma
[20] = test system: M14 melanoma
[21] = test system: MALME-3M melanoma
[22] = test system: MCF7 breast
[23] = test system: MDA-MB-231 breast
[24] = test system: MDA-MB-435
[25] = test system: MOLT-4 leukemia
[26] = test system: NCI-H226 lung
[27] = test system: NCI-H23 lung
[28] = test system: NCI-H460 lung
[29] = test system: NCI-H522 lung
[30] = test system: NCI/ADR-RES ovarian
[31] = test system: OVCAR-3 ovarian
[32] = test system: OVCAR-4 ovarian
[33] = test system: OVCAR-5 ovarian
[34] = test system: OVCAR-8 ovarian
[35] = test system: PC-3 prostate
[36] = test system: RPMI-8226 leukemia
[37] = test system: RXF 393 renal
[38] = test system: SF-268 CNS
[39] = test system: SF-295 CNS
[40] = test system: SF-539 CNS
[41] = test system: SK-MEL-2 melanoma
[42] = test system: SK-MEL-28 melanoma
[43] = test system: SK-MEL-5 melanoma
[44] = test system: SK-OV-3 ovarian
[45] = test system: SN12C renal
[46] = test system: SNB-19 CNS
[47] = test system: SNB-75 CNS
[48] = test system: SR leukemia
[49] = test system: SW-620 colon
[50] = test system: T-47D breast
[51] = test system: TK-10 renal
[52] = test system: U251 CNS
[53] = test system: UACC-257 melanoma
[54] = test system: UACC-62 melanoma
[55] = test system: UO-31 renal

## Cc1ccc(N(CSc2ccc(Cl)cc2)CSc2ccc(Cl)cc2)cc1
[1]
  GI50: 1660 nM
  TGI: 7660 nM
[2]
  GI50: 448 nM
  TGI: > 100000 nM
[3]
  GI50: 2110 nM
  TGI: 15700 nM
[4]
  GI50: 334 nM
  TGI: 1540 nM
[5]
  GI50: 829 nM
  TGI: 8160 nM
[6]
  GI50: 246 nM
  TGI: 2500 nM
[7]
  GI50: 1840 nM
  TGI: 3380 nM
[8]
  GI50: 2570 nM
  TGI: 23000 nM
[9]
  GI50: 542 nM
  TGI: 26000 nM
[10]
  GI50: 2570 nM
  TGI: 11700 nM
[11]
  GI50: 1520 nM
  TGI: 10900 nM
[12]
  GI50: 2120 nM
  TGI: 15300 nM
[13]
  GI50: 1650 nM
  TGI: 3650 nM
[14]
  GI50: 2710 nM
  TGI: 16400 nM
[15]
  GI50: 1300 nM
  TGI: 6730 nM
[16]
  GI50: 1850 nM
  TGI: 24100 nM
[17]
  GI50: 481 nM
  TGI: 5870 nM
[18]
  GI50: 510 nM
  TGI: 12500 nM
[19]
  GI50: 189 nM
  TGI: 694 nM
[20]
  GI50: 1480 nM
  TGI: 4450 nM
[21]
  GI50: 3650 nM
  TGI: 18400 nM
[22]
  GI50: 2250 nM
  TGI: 12100 nM
[23]
  GI50: 404 nM
  TGI: 2500 nM
[24]
  GI50: 927 nM
  TGI: 9380 nM
[25]
  GI50: 381 nM
  TGI: 2630 nM
[26]
  GI50: 1090 nM
  TGI: 2450 nM
[27]
  GI50: 2270 nM
  TGI: 10500 nM
[28]
  GI50: 575 nM
  TGI: > 100000 nM
[29]
  GI50: 1490 nM
  TGI: 3180 nM
[30]
  GI50: 1380 nM
  TGI: 9040 nM
[31]
  GI50: 2750 nM
  TGI: 11500 nM
[32]
  GI50: 2780 nM
  TGI: 31400 nM
[33]
  GI50: 1740 nM
  TGI: 13000 nM
[34]
  GI50: 1550 nM
  TGI: > 100000 nM
[35]
  GI50: 787 nM
  TGI: 13200 nM
[36]
  GI50: 2130 nM
  TGI: 6460 nM
[37]
  GI50: 1730 nM
  TGI: 7570 nM
[38]
  GI50: 909 nM
  TGI: 12400 nM
[39]
  GI50: 375 nM
  TGI: 2600 nM
[40]
  GI50: 1020 nM
  TGI: 2590 nM
[41]
  GI50: 3760 nM
  TGI: 25000 nM
[42]
  GI50: 1640 nM
  TGI: 4230 nM
[43]
  GI50: 1180 nM
  TGI: 2500 nM
[44]
  GI50: 3290 nM
  TGI: 19300 nM
[45]
  GI50: 501 nM
  TGI: 14500 nM
[46]
  GI50: 1480 nM
  TGI: 19800 nM
[47]
  GI50: 1390 nM
  TGI: 8700 nM
[48]
  GI50: 1040 nM
  TGI: 4860 nM
[49]
  GI50: 2220 nM
  TGI: 11500 nM
[50]
  GI50: 2920 nM
  TGI: 18300 nM
[51]
  GI50: 4880 nM
  TGI: > 100000 nM
[52]
  GI50: 581 nM
  TGI: 11200 nM
[53]
  GI50: 3720 nM
  TGI: > 100000 nM
[54]
  GI50: 818 nM
  TGI: 2910 nM
[55]
  GI50: 717 nM
  TGI: 2750 nM
